Data reported in patent US20180333382A1, “PHARMACEUTICAL COMPOSITIONS COMPRISING DGLA AND USE OF SAME” (DS Biopharma Limited, priority 2017, published 2018).

Assays:
[1] = Phase II study: safety (adverse events); assay type: in vivo, human; conditions: oral, 2 g once daily for 8 weeks
From the text: Subjects visited the clinic on 6 occasions: at screening, baseline, week 2, week 4, week 8 (end of treatment/early termination) and week 10 (follow-up). All subjects exited the study at the week 10 visit. The primary efficacy variable was the proportion of patients achieving an IGA of 0 (clear) or 1 (almost clear), and a decrease of at least 2 points in IGA at week 8. Secondary efficacy variables included: IGA at other visits, pruritus (obtained from the SCORAD visual analog scale), EASI, BSA, POEM, DLQI, SCORAD and TEWL (for selected sites only). Safety was assessed through adverse events, physical examination, vital signs and safety laboratory tests (including pregnancy tests for women of childbearing potential). Pharmacokinetic samples were obtained at Baseline (Day 0), week 4 and week 8 visits in order to measure total and free DGLA plasma trough levels. Separate plasma samples were retained for later analysis of total fatty acid profile and interleukin profile.
Laboratory tests were performed at screening, Day 0, Week 4 and Week 8. If Week 8 results indicated a clinically significant change from baseline, laboratory tests were also performed at Week 10. […]
Efficacy was evaluated on the basis of the ITT population and analyses were performed based on the randomized treatment and not on the treatment received. […]

[2] = tested on: eosinophil; assay: Phase II study: eosinophil concentrations by ethnicity and responder status; assay type: in vivo, human
Procedure: Laboratory tests were performed at screening, Day 0, Week 4 and Week 8. If Week 8 results indicated a clinically significant change from baseline, laboratory tests were also performed at Week 10. The tests included urinalysis, hematology with differential and coagulation testing, a standard chemistry panel (chemistry includes liver function tests and cholesterol), coagulation, serum pregnancy test (screening and week 8 early termination visits) for women of childbearing potential (WOCBP). At baseline (Day 0), week 2, week 4 and week 10 visits, a urine pregnancy test was performed for women of childbearing potential (conducted at the investigator site).
Eosinophils are a type of white blood cell that play an important role in the body's response to allergic reactions, asthma, and infection with parasites. Eosinophils usually account for less than 7% of the circulating white blood cells (100 to 500 eosinophils per microliter of blood). These cells have a role in the protective immunity against certain parasites but also contribute to the inflammation that occurs in allergic disorders.
FIG. 30A-B. In particular, 56% of DS107-treated African America patients were classified as Responders, versus only 7% of Caucasian patients. […]

With CCCCC/C=C\C/C=C\C/C=C\CCCCCCC(=O)O [DS107G, Dihomo gamma linolenic acid] the “drug related Serious Adverse Events” value [1] was “no drug related Serious Adverse Events”, the tolerability [1] was “very well tolerated” and the eosinophil concentrations ([2]; African American vs Caucasian patients, each time point measured) was “statistically significant reductions”. The eosinophil concentration ([2]; treated Responders vs Non-responders, all time points) was “statistically significant decrease”.
